Assay results taken from US9695155B2, “Herbicidal substituted pyrimidinyloxy benzene compounds” (E. I. DU PONT DE NEMOURS AND COMPANY, priority 2013, dated 2017).

What was measured:
[1] = system: Heteranthera limosa; assay: Test B flooded paddy test; assay type: in vivo; conditions: Flood, 250 g ai/ha; 0 to 100 scale where 0 is no effect and 100 is complete control
In short: (§1)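 Seedlings are raised to two leaves, flooded to a depth of 3 cm and dosed by adding the compound to the floodwater. Water level is kept constant, and plants are scored visually versus controls 13–15 days later (0 = no effect, 100 = complete control).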

[2] = system: galium; assay: Test A postemergence; assay type: in vivo, Galium aparine; conditions: 0 to 100 scale, 0 no effect, 100 complete control
In short: (§2)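 Pre- and postemergence greenhouse screen. Soil: loam + sand. Spray carrier: solvent mixture, non-phytotoxic, with surfactant. Post timing at 1–2 leaves, height 2–10 cm. Readout: visual injury on a 0–100 scale roughly 10 days after application, untreated plants as reference.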

[3] = system: barnyardgrass; assay: Test A preemergence; assay type: in vivo, Echinochloa crus-galli; conditions: for Plant response rating, Barnyardgrass: 31 g ai/ha, 0 to 100 scale where 0 is no effect and 100 is complete control, visual, approximately 10 days; for Barnyardgrass plant response rating (0 to 100 scale, 0 is no effect, 100 is complete control): 125 g ai/ha
In short: as §2

[4] = system: Italian ryegrass; assay: Test A preemergence; assay type: in vivo, Lolium multiflorum; conditions: for Plant response rating, Ryegrass, Italian: 31 g ai/ha, 0 to 100 scale where 0 is no effect and 100 is complete control, visual, approximately 10 days; for Ryegrass, Italian plant response rating (0 to 100 scale): 125 g ai/ha
In short: as §2

[5] = system: giant foxtail; assay: Test A preemergence; assay type: in vivo, Setaria faberii; conditions: for Plant response rating, Foxtail, Giant: 31 g ai/ha, 0 to 100 scale where 0 is no effect and 100 is complete control, visual, approximately 10 days; for Foxtail, Giant plant response rating (0 to 100 scale): 125 g ai/ha
In short: as §2

[6] = system: giant foxtail; assay: Test A postemergence; assay type: in vivo, Setaria faberii; conditions: 0 to 100 scale, 0 no effect, 100 complete control
In short: as §2

[7] = system: kochia; assay: Test A preemergence; assay type: in vivo, Kochia scoparia; conditions: for Plant response rating, Kochia: 31 g ai/ha, 0 to 100 scale where 0 is no effect and 100 is complete control, visual, approximately 10 days; for Kochia plant response rating (0 to 100 scale): 125 g ai/ha
In short: as §2

[8] = system: pigweed; assay: Test A postemergence; assay type: in vivo, Amaranthus retroflexus; conditions: 0 to 100 scale, 0 no effect, 100 complete control
In short: as §2

[9] = system: barnyardgrass; assay: Test A postemergence; assay type: in vivo, Echinochloa crus-galli; conditions: 0 to 100 scale, 0 no effect, 100 complete control
In short: as §2

[10] = system: Italian ryegrass; assay: Test A postemergence; assay type: in vivo, Lolium multiflorum; conditions: 0 to 100 scale, 0 no effect, 100 complete control
In short: as §2

[11] = system: rice; assay: Test B flooded paddy test; assay type: in vivo, Oryza sativa; conditions: Flood, 250 g ai/ha; 0 to 100 scale where 0 is no effect and 100 is complete control
In short: as §1

[12] = system: ragweed; assay: Test A postemergence; assay type: in vivo, Ambrosia elatior; conditions: 0 to 100 scale, 0 no effect, 100 complete control
In short: as §2

[13] = system: blackgrass; assay: Test A postemergence; assay type: in vivo, Alopecurus myosuroides; conditions: 0 to 100 scale, 0 no effect, 100 complete control
In short: as §2

[14] = system: corn; assay: Test A postemergence; assay type: in vivo, Zea mays; conditions: 0 to 100 scale, 0 no effect, 100 complete control
In short: as §2

[15] = system: barnyardgrass; assay: Test B flooded paddy test; assay type: in vivo, Echinochloa crus-galli; conditions: Flood, 250 g ai/ha; 0 to 100 scale where 0 is no effect and 100 is complete control
In short: as §1

[16] = system: wheat; assay: Test A postemergence; assay type: in vivo, Triticum aestivum; conditions: 0 to 100 scale, 0 no effect, 100 complete control
In short: as §2

[17] = system: ragweed; assay: Test A preemergence; assay type: in vivo, Ambrosia elatior; conditions: for Plant response rating, Ragweed: 31 g ai/ha, 0 to 100 scale where 0 is no effect and 100 is complete control, visual, approximately 10 days; for Ragweed plant response rating (0 to 100 scale): 125 g ai/ha
In short: as §2

[18] = system: pigweed; assay: Test A preemergence; assay type: in vivo, Amaranthus retroflexus; conditions: for Plant response rating, Pigweed: 31 g ai/ha, 0 to 100 scale where 0 is no effect and 100 is complete control, visual, approximately 10 days; for Pigweed plant response rating (0 to 100 scale): 125 g ai/ha
In short: as §2

[19] = system: sedge, umbrella; assay: Test B flooded paddy test; assay type: in vivo, Cyperus difformis; conditions: Flood, 250 g ai/ha; 0 to 100 scale where 0 is no effect and 100 is complete control
In short: as §1

[20] = system: kochia; assay: Test A postemergence; assay type: in vivo, Kochia scoparia; conditions: 0 to 100 scale, 0 no effect, 100 complete control
In short: as §2

[21] = 1000 g ai/ha, 0 to 100 scale, 0 no effect, 100 complete control, approx. 10 days

N#Cc1cnn(-c2c(CF)cccc2Oc2ncc(Cl)cn2)c1 [Compound 242]
Plant response rating, Ducksalad [1]: 70
Plant response rating, Galium ([2]; 31 g ai/ha): 10
Plant response rating, Galium ([2]; 125 g ai/ha): 30
Plant response rating, Barnyardgrass [3]: 20
Barnyardgrass plant response rating (0 to 100 scale, 0 is no effect, 100 is complete control) [3]: 70
Plant response rating, Ryegrass, Italian [4]: 0
Ryegrass, Italian plant response rating (0 to 100 scale) [4]: 0
Plant response rating, Foxtail, Giant [5]: 100
Foxtail, Giant plant response rating (0 to 100 scale) [5]: 100
Plant response rating, Foxtail, Giant ([6]; 31 g ai/ha): 0
Plant response rating, Foxtail, Giant ([6]; 125 g ai/ha): 50
Plant response rating, Kochia [7]: 30
Kochia plant response rating (0 to 100 scale) [7]: 100
Plant response rating, Pigweed ([8]; 31 g ai/ha): 30
Plant response rating, Pigweed ([8]; 125 g ai/ha): 80
Plant response rating, Barnyardgrass ([9]; 31 g ai/ha): 0
Plant response rating, Barnyardgrass ([9]; 125 g ai/ha): 60
Plant response rating, Ryegrass, Italian ([10]; 31 g ai/ha): 0
Plant response rating, Ryegrass, Italian ([10]; 125 g ai/ha): 30
Plant response rating, Rice [11]: 0
Plant response rating, Ragweed ([12]; 31 g ai/ha): 20
Plant response rating, Ragweed ([12]; 125 g ai/ha): 50
Plant response rating, Blackgrass ([13]; 31 g ai/ha): 30
Plant response rating, Blackgrass ([13]; 125 g ai/ha): 90
Plant response rating, Corn ([14]; 31 g ai/ha): 0
Plant response rating, Corn ([14]; 125 g ai/ha): 60
Plant response rating, Barnyardgrass [15]: 20
Plant response rating, Wheat ([16]; 31 g ai/ha): 0
Plant response rating, Wheat ([16]; 125 g ai/ha): 60
Plant response rating, Ragweed [17]: 50
Ragweed plant response rating (0 to 100 scale) [17]: 80
Plant response rating, Pigweed [18]: 90
Pigweed plant response rating (0 to 100 scale) [18]: 100
Plant response rating, Sedge, Umbrella [19]: 75
Plant response rating, Kochia ([20]; 31 g ai/ha): 30
Plant response rating, Kochia ([20]; 125 g ai/ha): 80

COC(=O)c1cccc(Oc2ncc(Cl)cn2)c1-n1cc(C(F)(F)F)cn1 [Compound 248]
Plant response rating, Ducksalad [1]: 50
Plant response rating, Galium ([2]; 1000 g ai/ha): 100
Barnyardgrass plant response rating [3, 21]: 80
Ryegrass, Italian plant response rating [4, 21]: 50
Foxtail, Giant plant response rating [5, 21]: 100
Plant response rating, Foxtail, Giant ([6]; 1000 g ai/ha): 100
Kochia plant response rating [7, 21]: 100
Plant response rating, Pigweed ([8]; 1000 g ai/ha): 100
Plant response rating, Barnyardgrass ([9]; 1000 g ai/ha): 70
Plant response rating, Ryegrass, Italian ([10]; 1000 g ai/ha): 50
Plant response rating, Rice [11]: 15
Plant response rating, Ragweed ([12]; 1000 g ai/ha): 50
Plant response rating, Blackgrass ([13]; 1000 g ai/ha): 30
Plant response rating, Corn ([14]; 1000 g ai/ha): 80
Plant response rating, Barnyardgrass [15]: 0
Plant response rating, Wheat ([16]; 1000 g ai/ha): 20
Ragweed plant response rating [17, 21]: 40
Pigweed plant response rating [18, 21]: 100
Plant response rating, Sedge, Umbrella [19]: 70
Plant response rating, Kochia ([20]; 1000 g ai/ha): 90

CC(C)Oc1cnn(-c2c(C#N)cccc2Oc2ncc(Br)cn2)c1 [Compound 254]
Plant response rating, Ducksalad [1]: 65
Plant response rating, Galium ([2]; 31 g ai/ha): 20
Plant response rating, Galium ([2]; 125 g ai/ha): 100
Plant response rating, Barnyardgrass [3]: 20
Barnyardgrass plant response rating (0 to 100 scale, 0 is no effect, 100 is complete control) [3]: 80
Plant response rating, Ryegrass, Italian [4]: 0
Ryegrass, Italian plant response rating (0 to 100 scale) [4]: 40
Plant response rating, Foxtail, Giant [5]: 30
Foxtail, Giant plant response rating (0 to 100 scale) [5]: 90
Plant response rating, Foxtail, Giant ([6]; 31 g ai/ha): 10
Plant response rating, Foxtail, Giant ([6]; 125 g ai/ha): 60
Plant response rating, Kochia [7]: 20
Kochia plant response rating (0 to 100 scale) [7]: 80
Plant response rating, Pigweed ([8]; 31 g ai/ha): 10
Plant response rating, Pigweed ([8]; 125 g ai/ha): 30
Plant response rating, Barnyardgrass ([9]; 31 g ai/ha): 10
Plant response rating, Barnyardgrass ([9]; 125 g ai/ha): 60
Plant response rating, Ryegrass, Italian ([10]; 31 g ai/ha): 0
Plant response rating, Ryegrass, Italian ([10]; 125 g ai/ha): 20
Plant response rating, Rice [11]: 0
Plant response rating, Ragweed ([12]; 31 g ai/ha): 10
Plant response rating, Ragweed ([12]; 125 g ai/ha): 20
Plant response rating, Blackgrass ([13]; 31 g ai/ha): 0
Plant response rating, Blackgrass ([13]; 125 g ai/ha): 60
Plant response rating, Corn ([14]; 31 g ai/ha): 10
Plant response rating, Corn ([14]; 125 g ai/ha): 20
Plant response rating, Barnyardgrass [15]: 0
Plant response rating, Wheat ([16]; 31 g ai/ha): 0
Plant response rating, Wheat ([16]; 125 g ai/ha): 30
Plant response rating, Ragweed [17]: 0
Ragweed plant response rating (0 to 100 scale) [17]: 0
Plant response rating, Pigweed [18]: 30
Pigweed plant response rating (0 to 100 scale) [18]: 90
Plant response rating, Sedge, Umbrella [19]: 60
Plant response rating, Kochia ([20]; 31 g ai/ha): 20
Plant response rating, Kochia ([20]; 125 g ai/ha): 60
